From US20210405025A1, “IDENTIFYING COMPOUNDS FOR TREATING CANCER AND USE THEREOF” (THE UAB RESEARCH FOUNDATION, priority 2018, published 2021)
Where a name gives a salt, the structure may show the parent alone.

Tested on: relapsed AML cells
Experiment: Drug sensitivity assay, 1,536-well, 3-day culture with individual approved drugs at 10 μM, viability by alamarBlue
Assay type: cell-based, human
Settings: not given
Method in brief: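 FACS-sorted viable myeloid blasts from thawed AML samples, 4,000-4,500 cells per 5 μL well, cultured in IMDM with 15% BIT, SCF, FLT3L, IL-3, G-CSF. Drugs added per well; after three days percentage of live cells measured to gauge killing.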

Compound	#Cases >70% cell death
O=C(O)C1[O][Sb]2[O]C(=O)C([O]2)C(C(=O)O)[O][Sb]2[O]C(=O)C1[O]2 (stereo not drawn) [ANTIMONY POTASSIUM TARTRATE TRIHYDRATE]	3

Same assay, conditions: number of relapsed AML cases out of 18 tested with >70% cell death; 10 μM, 3-day culture

Compound	#Cases >70% cell death
C[C@@H]1C[C@@H]([C@H](O)CC2CC(=O)NC(=O)C2)C(=O)[C@@H](C)C1 [CYCLOHEXIMIDE]	18
OCCN(CCO)c1nc(N2CCCCC2)c2nc(N(CCO)CCO)nc(N3CCCCC3)c2n1 [DIPYRIDAMOLE]	2
CC1(C)O[C@@H]2C[C@H]3[C@@H]4C[C@H](F)C5=CC(=O)CC[C@]5(C)[C@H]4[C@@H](O)C[C@]3(C)[C@]2(C(=O)CO)O1 [FLURANDRENOLIDE]	18
CC[C@@]1(O)C(=O)OCc2c1cc1n(c2=O)Cc2cc3c(CN(C)C)c(O)ccc3nc2-1 [TOPOTECAN]	13
CC(=O)OCC(=O)[C@@]12N=C(C)O[C@@H]1C[C@H]1[C@@H]3CCC4=CC(=O)C=C[C@]4(C)[C@H]3[C@@H](O)C[C@@]12C [DEFLAZACORT]	8
CC(NCCC(c1ccccc1)c1ccccc1)c1ccccc1 (stereo not drawn) [FENDILINE HYDROCHLORIDE]	1
Cc1cc(C(C)(C)CC(C)(C)C)ccc1OCCOCC[N+](C)(C)Cc1ccccc1.[Cl-] [METHYLBENZETHONIUM CHLORIDE]	16
CCCOc1cc(N)ccc1C(=O)OCCN(CC)CC [PROPOXYCAINE HYDROCHLORIDE]	1
CC(=O)O[C@@]12CO[C@@H]1C[C@H](O)[C@@]1(C)C(=O)[C@H](O)C3=C(C)[C@@H](O)C[C@@](O)([C@@H](OC(=O)c4ccccc4)[C@H]21)C3(C)C [10-DAB]	1
CCc1ccc(OCc2ccccc2C(=O)Nc2ccc3nc(C)cc(N)c3c2)cc1 [JTC-801]	18
Cc1cc2nc3ccc(N(C)C)cc3[s+]c2cc1N [TOLONIUM CHLORIDE]	11
CCCC1O[C@@H]2C[C@H]3[C@@H]4CCC5=CC(=O)C=C[C@]5(C)[C@H]4[C@@H](O)C[C@]3(C)[C@]2(C(=O)CO)O1 (stereo partly drawn) [BUDESONIDE]	2
CCOC(=O)/C=C(C)/C=C/C=C(C)/C=C/c1c(C)cc(OC)c(C)c1C [ETRETINATE]	1
c1ccc(CC2=NCCN2)cc1 [TOLAZOLINE HYDROCHLORIDE]	4
Cc1nc2sccn2c(=O)c1CCN1CCC(=C(c2ccc(F)cc2)c2ccc(F)cc2)CC1 [RITANSERIN]	1
CN[C@@H]1[C@@H](O)[C@@H](O[C@@H]2[C@@H](O)[C@H](O[C@H]3OC(CN)=CC[C@H]3N)[C@@H](N)C[C@H]2N)OC[C@]1(C)O [SISOMICIN]	10
C[C@@H]1C[C@H]2[C@@H]3CCC4=CC(=O)C=C[C@]4(C)[C@@]3(F)[C@@H](O)C[C@]2(C)[C@@]1(O)C(=O)CO [DEXAMETHASONE]	2
CCCCCCCCCCCCCCCC[N+](C)(C)CCN(Cc1ccc(OC)cc1)c1ncccn1 [THONZONIUM BROMIDE]	18
CC(C)(C)C(=O)C(Oc1ccc(Cl)cc1)n1ccnc1 (stereo not drawn) [CLIMBAZOLE]	1
COc1cc2c(Nc3ccc(Br)cc3F)ncnc2cc1OCC1CCN(C)CC1 [VANDETANIB]	1
CN1CCC(CNc2ccc3ncc(-c4cccc(OC(F)(F)F)c4)n3n2)CC1 [SGI-1776]	14
CCC(COC(=O)c1cc(OC)c(OC)c(OC)c1)(c1ccccc1)N(C)C (stereo not drawn) [TRIMEBUTINE]	1
CC(C)OC(=O)C(C)(C)Oc1ccc(C(=O)c2ccc(Cl)cc2)cc1 [FENOFIBRATE]	3
CCCCOc1cc(C(=O)OCCN(CC)CC)ccc1N [BENOXINATE]	5

Compound	#Cases >70% cell death
CC(C)(C)c1nc(-c2cccc(NS(=O)(=O)c3c(F)cccc3F)c2F)c(-c2ccnc(N)n2)s1 [DABRAFENIB]	4
CS(=O)(=O)CCNCc1ccc(-c2ccc3ncnc(Nc4ccc(OCc5cccc(F)c5)c(Cl)c4)c3c2)o1 [LAPATINIB]	2
CCC(C)(C)c1ccc(CC(C)CN2C[C@@H](C)O[C@@H](C)C2)cc1 (stereo partly drawn) [AMOROLFINE]	9
Cn1nnc2c(C(N)=O)ncn2c1=O [TEMOZOLAMIDE]	14
C[C@@H](NCCCc1cccc(C(F)(F)F)c1)c1cccc2ccccc12 [AMG-073 HCL]	1
CCC(=O)O[C@]1(C(=O)CCl)[C@@H](C)C[C@H]2[C@@H]3C[C@H](F)C4=CC(=O)C=C[C@]4(C)[C@@]3(F)[C@@H](O)C[C@@]21C [HALOBETASOL PROPIONATE]	3
CC(=O)OCC(=O)[C@@]12OC(C)(C)O[C@@H]1C[C@H]1[C@@H]3C[C@H](F)C4=CC(=O)C=C[C@]4(C)[C@@]3(F)[C@@H](O)C[C@@]12C [FLUOCINONIDE]	1
CCCCNc1ccc(C(=O)OCCN(C)C)cc1 [TETRACAINE]	12
CC1=C(/C=C/C(C)=C/C=C/C(C)=C/C(=O)Nc2ccc(O)cc2)C(C)(C)CCC1 [FENRETINIDE]	9
CC(C)OC(=O)CCC/C=C\C[C@@H]1[C@@H](CC[C@@H](O)CCc2ccccc2)[C@H](O)C[C@@H]1O [LATANOPROST]	1
CCC(=O)OCC(=O)[C@@]1(OC(=O)CC)[C@@H](C)C[C@H]2[C@@H]3CCC4=CC(=O)C=C[C@]4(C)[C@@]3(Cl)[C@@H](O)C[C@@]21C [BECLOMETHASONE DIPROPIONATE]	1
CN1CCC[C@@H]1CCO[C@](C)(c1ccccc1)c1ccc(Cl)cc1 [CLEMASTINE]	1
COc1cc([C@@H]2c3cc4c(cc3[C@@H](O[C@@H]3O[C@@H]5CO[C@@H](C)O[C@H]5[C@H](O)[C@H]3O)[C@H]3COC(=O)[C@H]23)OCO4)cc(OC)c1O [ETOPOSIDE]	5
COc1ccc2cc3[n+](cc2c1OC)CCc1cc2c(cc1-3)OCO2 [BERBERINE CHLORIDE]	1
CC(C)NCC(O)COc1ccc(CC(N)=O)cc1 (stereo not drawn) [ATENOLOL]	1
CC[C@H]1OC(=O)C[C@@H](O)[C@H](C)[C@@H](O[C@@H]2O[C@H](C)[C@@H](O[C@H]3C[C@@](C)(O)[C@@H](O)[C@H](C)O3)[C@H](N(C)C)[C@H]2O)[C@@H](CC=O)C[C@@H](C)C(=O)/C=C/C(C)=C/[C@@H]1CO[C@@H]1O[C@H](C)[C@@H](O)[C@@H](OC)[C@H]1OC [TYLOSIN]	1
C#C[C@]1(O)CC[C@H]2[C@@H]3CCC4=Cc5oncc5C[C@]4(C)[C@H]3CC[C@@]21C [DANAZOL]	1
Nc1ccn([C@@H]2O[C@H](CO)[C@@H](O)[C@@H]2O)c(=O)n1 [CYTARABINE]	16
CC(C)(C)c1[nH]cnc1/C=c1\[nH]c(=O)/c(=C/c2ccccc2)[nH]c1=O [PLINABULIN]	12
CCc1ccc(CCOc2ccc(CC3SC(=O)NC3=O)cc2)nc1 (stereo not drawn) [PIOGLITAZONE]	8
Cc1cccc(C)c1N=C1NCCCS1 [XYLAZINE]	4
C[C@H]1C[C@H]2[C@@H]3CCC4=CC(=O)C=C[C@]4(C)[C@@]3(F)[C@@H](O)C[C@]2(C)[C@@]1(O)C(=O)CO [BETAMETHASONE]	1
CN1CCN(c2ncc(-c3cc(Cl)cc(Cl)c3Cl)c(N)n2)CC1 [SIPATRIGINE]	1
CC(=O)O[C@H]1C(=O)[C@@]2(C)[C@H]([C@H](OC(=O)c3ccccc3)[C@]3(O)C[C@H](OC(=O)[C@H](O)[C@@H](NC(=O)c4ccccc4)c4ccccc4)C(C)=C1C3(C)C)[C@]1(OC(C)=O)CO[C@@H]1C[C@@H]2O [PACLITAXEL]	5

Compound	#Cases >70% cell death
Cc1cnc(C(=O)O)c[n+]1[O-] [ACIPIMOX]	1
C[C@H]1COc2c(C3(N)CC3)c(F)cc3c(=O)c(C(=O)O)cn1c23 [PAZUFLOXACIN]	1
CCc1cc(Cl)c(OC)c(C(=O)NC[C@@H]2CCCN2CC)c1O [ETICLOPRIDE HYDROCHLORIDE]	1
N#CC[C@H](C1CCCC1)n1cc(-c2ncnc3[nH]ccc23)cn1 [RUXOLITINIB]	6
C[C@@H]1CCCN1CCc1cc2cc(-c3ccc(C#N)cc3)ccc2o1 [ABT-239]	1
APILIMOD MESYLATE	4
N#Cc1cc(CN2CCC(Nc3ncnc4sc(Cl)cc34)CC2)ccc1F [PRX-8066]	1
N=C(N)NC(=O)Cc1c(Cl)cccc1Cl [GUANFACINE HCL]	1
O=C1c2c(O)ccc(O)c2C(=O)c2c(NCCNCCO)ccc(NCCNCCO)c21 [MITOXANTRONE]	18
COc1ccc(C2CNC(=O)C2)cc1OC1CCCC1 (stereo not drawn) [ROLIPRAM]	1
IVERMECTIN	18
IFENPRODIL TARTRATE	4
CNC[C@H](O)[C@@H](O)[C@H](O)[C@H](O)CO [MEGLUMINE]	1
COc1ccc(S(=O)(=O)Nc2cccnc2Nc2ccc(O)cc2)cc1 [ABT-751]	5
Nc1nc2nc[nH]c2c(=S)[nH]1 [TIOGUANINE (6-thioguanine), TIOGUANINE]	16
EPRINOMECTIN	5
COc1cccc([C@@H](C)NCCCc2ccccc2Cl)c1 [TECALCET HYDROCHLORIDE]	1
C[C@@H]1CCN(C(=O)CC#N)C[C@@H]1N(C)c1ncnc2[nH]ccc12 [TOFACETINIB]	4
Oc1c(I)cc(Cl)c2cccnc12 [CLIOQUINOL]	6
C[C@H]1C[C@@H]2[C@H]([C@@H](O)C[C@@]3(C)[C@H]2CC[C@]3(O)C(=O)CO)[C@@]2(C)C=CC(=O)C=C12 [METHYLPREDNISOLONE]	1
CC(=O)N1CCN(c2ccc(OCC3COC(Cn4ccnc4)(c4ccc(Cl)cc4Cl)O3)cc2)CC1 (stereo not drawn) [KETOCONAZOLE]	5
COc1cc(C(=O)OCCCN2CCCN(CCCOC(=O)c3cc(OC)c(OC)c(OC)c3)CC2)cc(OC)c1OC [DILAZEP DIHYDROCHLORIDE]	2
N#C[C@@H]1CCCN1C(=O)CNC12CC3CC(CC(O)(C3)C1)C2 [VILDAGLIPTIN]	1
